Test results taken from ChEMBL document CHEMBL4610038, “The synthesis of trifluoromethylated N-nitroaryl-2-amino-1,3-dichloropropane derivatives and their evaluation as potential anti-cancer agents” (Bioorg Med Chem Lett, 2020).

Experiments:
SW48 [1] = assay: Cytotoxicity against human SW48 cells assessed as reduction in cell viability; format: functional, cell-based
MDA-MB-231 [2] = assay: Cytotoxicity against human MDA-MB-231 cells assessed as cell viability at 100 uM relative to control; format: functional; conditions: read-out: Activity
MDA-MB-231 [3] = assay: Cytotoxicity against human MDA-MB-231 cells assessed as reduction in cell viability; format: functional, cell-based
HCT-116 [4] = assay: Cytotoxicity against human HCT116 cells assessed as cell viability at 100 uM relative to control; format: functional; conditions: read-out: Activity
SK-BR-3 [5] = assay: Cytotoxicity against human SKBR3 cells assessed as reduction in cell viability; format: functional, cell-based
SH-SY5Y [6] = assay: Cytotoxicity against human SH-SY5Y cells assessed as cell viability at 100 uM relative to control; format: functional; conditions: read-out: Activity
[7] = Cytotoxicity against human HK1 cells assessed as reduction in cell viability; format: functional, cell-based; conditions: HK-1
NCI-H1299 [8] = assay: Cytotoxicity against human H1299 cells assessed as cell viability at 100 uM relative to control; format: functional; conditions: read-out: Activity
HCT-116 [9] = assay: Cytotoxicity against human HCT116 cells assessed as reduction in cell viability; format: functional, cell-based
SUNE1 [10] = assay: Cytotoxicity against human SUNE1 cells assessed as reduction in cell viability; format: functional, cell-based
MDA-MB-468 [11] = assay: Cytotoxicity against human MDA-MB-468 cells assessed as reduction in cell viability; format: functional, cell-based
A549 [12] = assay: Cytotoxicity against human A549 cells assessed as cell viability at 100 uM relative to control; format: functional; conditions: read-out: Activity
MRC5 = assay: Cytotoxicity against human MRC5 cells assessed as reduction in cell viability; format: cell-based
[13] = Cytotoxicity against human MRC5 cells assessed as cell viability at 100 uM relative to control; format: cell-based; conditions: read-out: Activity
ASPC1 [14] = assay: Cytotoxicity against human AsPC1 cells assessed as cell viability at 100 uM relative to control; format: functional; conditions: read-out: Activity
SK-BR-3 [15] = assay: Cytotoxicity against human SKBR3 cells assessed as cell viability at 100 uM relative to control; format: functional; conditions: read-out: Activity
MDA-MB-468 [16] = assay: Cytotoxicity against human MDA-MB-468 cells assessed as cell viability at 100 uM relative to control; format: functional; conditions: read-out: Activity
[17] = Cytotoxicity against human HK1 cells assessed as cell viability at 100 uM relative to control; format: functional; conditions: HK-1, read-out: Activity
HT-29 [18] = assay: Cytotoxicity against human HT-29 cells assessed as reduction in cell viability; format: functional, cell-based
SW1990 [19] = assay: Cytotoxicity against human SW1990 cells assessed as cell viability at 100 uM relative to control; format: functional; conditions: read-out: Activity
SH-SY5Y [20] = assay: Cytotoxicity against human SH-SY5Y cells assessed as reduction in cell viability; format: functional, cell-based
A549 [21] = assay: Cytotoxicity against human A549 cells assessed as reduction in cell viability; format: functional, cell-based
[22] = Cytotoxicity against human MCF10A cells assessed as cell viability at 100 uM relative to control; format: cell-based, MCF-10A; conditions: read-out: Activity
ASPC1 [23] = assay: Cytotoxicity against human AsPC1 cells assessed as reduction in cell viability; format: functional, cell-based
SW48 [24] = assay: Cytotoxicity against human SW48 cells assessed as cell viability at 100 uM relative to control; format: functional; conditions: read-out: Activity
BXPC-3 [25] = assay: Cytotoxicity against human BxPC3 cells assessed as cell viability at 100 uM relative to control; format: functional; conditions: read-out: Activity
NCI-H1299 [26] = assay: Cytotoxicity against human H1299 cells assessed as reduction in cell viability; format: functional, cell-based
MCF7 [27] = assay: Cytotoxicity against human MCF7 cells assessed as reduction in cell viability; format: functional, cell-based
T47D [28] = assay: Cytotoxicity against human T47D cells assessed as reduction in cell viability; format: functional, cell-based
SW1990 [29] = assay: Cytotoxicity against human SW1990 cells assessed as reduction in cell viability; format: functional, cell-based
Caco-2 [30] = assay: Cytotoxicity against human Caco2 cells assessed as cell viability at 100 uM relative to control; format: functional; conditions: read-out: Activity
CNE [31] = assay: Cytotoxicity against human CNE1 cells assessed as reduction in cell viability; format: functional, cell-based
HT-29 [32] = assay: Cytotoxicity against human HT-29 cells assessed as cell viability at 100 uM relative to control; format: functional; conditions: read-out: Activity
BXPC-3 [33] = assay: Cytotoxicity against human BxPC3 cells assessed as reduction in cell viability; format: functional, cell-based
CNE [34] = assay: Cytotoxicity against human CNE1 cells assessed as cell viability at 100 uM relative to control; format: functional; conditions: read-out: Activity
T47D [35] = assay: Cytotoxicity against human T47D cells assessed as cell viability at 100 uM relative to control; format: functional; conditions: read-out: Activity
MCF7 [36] = assay: Cytotoxicity against human MCF7 cells assessed as cell viability at 100 uM relative to control; format: functional; conditions: read-out: Activity
MCF-10A = assay: Cytotoxicity against human MCF10A cells assessed as reduction in cell viability; format: cell-based
Caco-2 [37] = assay: Cytotoxicity against human Caco2 cells assessed as reduction in cell viability; format: functional, cell-based
SUNE1 [38] = assay: Cytotoxicity against human SUNE1 cells assessed as cell viability at 100 uM relative to control; format: functional; conditions: read-out: Activity

Row | Structure (SMILES) | IC50 (SW48 [1]) | viability at 100 µM (MDA-MB-231 [2]) | IC50 (MDA-MB-231 [3]) | viability at 100 µM (HCT-116 [4]) | IC50 (SK-BR-3 [5]) | viability at 100 µM (SH-SY5Y [6]) | IC50 [7] | viability at 100 µM (NCI-H1299 [8]) | IC50 (HCT-116 [9]) | IC50 (SUNE1 [10]) | IC50 (MDA-MB-468 [11]) | viability at 100 µM (A549 [12]) | IC50 (MRC5) | viability at 100 µM [13] | viability at 100 µM (ASPC1 [14]) | viability at 100 µM (SK-BR-3 [15]) | viability at 100 µM (MDA-MB-468 [16]) | viability at 100 µM [17] | IC50 (HT-29 [18]) | viability at 100 µM (SW1990 [19]) | other results
1 | O=[N+]([O-])c1ccc(NC(CCl)CCl)cc1 | > 100 µM | 72.4% | > 100 µM | 79.4% | > 100 µM | 65.8% | > 100 µM | 67.4% | > 100 µM | > 100 µM | > 100 µM | 73.5% | 58.3 µM | 44.9% | 67.7% | 73.1% | 45.1% | 76.9% | > 100 µM | 55.1% | IC50 (SH-SY5Y [20]): > 100 µM; IC50 (A549 [21]): > 100 µM; viability at 100 µM [22]: 82.7%; IC50 (ASPC1 [23]): > 100 µM; viability at 100 µM (SW48 [24]): 58.8%; viability at 100 µM (BXPC-3 [25]): 82.9%; IC50 (NCI-H1299 [26]): > 100 µM; IC50 (MCF7 [27]): 70.2 µM; IC50 (T47D [28]): > 100 µM; IC50 (SW1990 [29]): > 100 µM; viability at 100 µM (Caco-2 [30]): 91.6%; IC50 (CNE [31]): > 100 µM; viability at 100 µM (HT-29 [32]): 60.9%; IC50 (BXPC-3 [33]): > 100 µM; viability at 100 µM (CNE [34]): 88.1%; viability at 100 µM (T47D [35]): 65.2%; viability at 100 µM (MCF7 [36]): 38.8%; IC50 (MCF-10A): > 100 µM; IC50 (Caco-2 [37]): > 100 µM; viability at 100 µM (SUNE1 [38]): 110%
2 | O=[N+]([O-])c1ccc(NC(CO)CO)c([N+](=O)[O-])c1 | > 100 µM | 79.4% | > 100 µM | 81.9% | > 100 µM | 86.1% | > 100 µM | 89.8% | > 100 µM | > 100 µM | > 100 µM | 77.4% | > 100 µM | 78.9% | 108% | 98.9% | 106% | 103% | > 100 µM | 65.8% | IC50 (SH-SY5Y [20]): > 100 µM; IC50 (A549 [21]): > 100 µM; viability at 100 µM [22]: 105%; IC50 (ASPC1 [23]): > 100 µM; viability at 100 µM (SW48 [24]): 88.2%; viability at 100 µM (BXPC-3 [25]): 104%; IC50 (NCI-H1299 [26]): > 100 µM; IC50 (MCF7 [27]): > 100 µM; IC50 (T47D [28]): > 100 µM; IC50 (SW1990 [29]): > 100 µM; viability at 100 µM (Caco-2 [30]): 102%; IC50 (CNE [31]): > 100 µM; viability at 100 µM (HT-29 [32]): 89.6%; IC50 (BXPC-3 [33]): > 100 µM; viability at 100 µM (CNE [34]): 102%; viability at 100 µM (T47D [35]): 79.9%; viability at 100 µM (MCF7 [36]): 55.5%; IC50 (MCF-10A): > 100 µM; IC50 (Caco-2 [37]): > 100 µM; viability at 100 µM (SUNE1 [38]): 106%
3 | O=[N+]([O-])c1ccc(NC(CCl)CCl)c([N+](=O)[O-])c1 | > 100 µM | 83.4% | > 100 µM | 73.1% | > 100 µM | 63.6% | > 100 µM | 96.3% | > 100 µM | > 100 µM | > 100 µM | 59.4% | 54.1 µM | 24.3% | 106% | 71.6% | 61.3% | 88.9% | > 100 µM | 69.8% | IC50 (SH-SY5Y [20]): > 100 µM; IC50 (A549 [21]): > 100 µM; viability at 100 µM [22]: 78.8%; IC50 (ASPC1 [23]): > 100 µM; viability at 100 µM (SW48 [24]): 55.2%; viability at 100 µM (BXPC-3 [25]): 103%; IC50 (NCI-H1299 [26]): > 100 µM; IC50 (MCF7 [27]): 44.3 µM; IC50 (T47D [28]): 85.3 µM; IC50 (SW1990 [29]): > 100 µM; viability at 100 µM (Caco-2 [30]): 105%; IC50 (CNE [31]): > 100 µM; viability at 100 µM (HT-29 [32]): 89.1%; IC50 (BXPC-3 [33]): > 100 µM; viability at 100 µM (CNE [34]): 70.5%; viability at 100 µM (T47D [35]): 58.7%; viability at 100 µM (MCF7 [36]): 25.1%; IC50 (MCF-10A): > 100 µM; IC50 (Caco-2 [37]): > 100 µM; viability at 100 µM (SUNE1 [38]): 68.6%
